#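 Values below derive from 48-hour exposures of cells grown in 96-well plates, with endpoints linearly interpolated between the two concentrations bracketing the appropriate inhibition level. Here, GI50 denotes the concentration required for 50% inhibition of growth.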 Activity calls are given as the source filed them. Rule as the data show it: active = GI50 up to about 1.1 µM and inactive = higher.
# What was measured:
# Assay in all cases: inhibition of tumour cell growth, NCI panel, 48 h
# [1] = system: KM12
# [2] = system: NCI-H23
# [3] = system: MCF7
# [4] = system: SNB-75
# [5] = system: SN12C
# [6] = system: A498
# [7] = system: EKVX
# [8] = system: IGROV-1
# [9] = system: HCT-116
# [10] = system: SF-539
# [11] = system: RXF 393
# [12] = system: MOLT-4
# [13] = system: PC-3
# [14] = system: NCI-H226
# [15] = system: LOX IMVI
# [16] = system: BT-549
# [17] = system: HCC 2998
# [18] = system: K562
# [19] = system: COLO 205
# [20] = system: UO-31
SMILES,GI50 [1],GI50 [2],GI50 [3],GI50 [4],GI50 [5],GI50 [6],GI50 [7],GI50 [8],GI50 [9],GI50 [10],GI50 [11],GI50 [12],GI50 [13],GI50 [14],GI50 [15],GI50 [16],GI50 [17],GI50 [18],GI50 [19],GI50 [20]
COCCc1c(C)c(C#N)c2n(C)c3ccccc3n2c1=O,> 10 µM (inactive),> 10 µM (inactive),> 10 µM (inactive),> 10 µM (inactive),> 10 µM (inactive),> 10 µM (inactive),> 10 µM (inactive),> 10 µM (inactive),> 10 µM (inactive),> 10 µM (inactive),> 10 µM (inactive),> 10 µM (inactive),> 10 µM (inactive),> 10 µM (inactive),> 10 µM (inactive),> 10 µM (inactive),> 10 µM (inactive),0.566 µM (active),> 10 µM (inactive),–
COc1cc2nc(-c3cccs3)nc(N3C(c4ccc(O)cc4)=NNC(=O)c4ccccc43)c2cc1OC,32.7 µM (inactive),27.5 µM (inactive),36.7 µM (inactive),24 µM (inactive),24.2 µM (inactive),> 100 µM (inactive),3.9 µM (inactive),32.7 µM (inactive),32.4 µM (inactive),< 0.01 µM (active),19.8 µM (inactive),–,25.6 µM (inactive),23.3 µM (inactive),22.3 µM (inactive),21 µM (inactive),18.6 µM (inactive),17.5 µM (inactive),20.8 µM (inactive),19 µM (inactive)
COc1cccc([C@H]2C/C(=N\NC(=O)C(=O)N[C@@H](C)c3ccccc3)c3ccccc3N2)c1,< 0.01 µM (active),> 10 µM (inactive),9.38 µM (inactive),8.53 µM (inactive),0.0184 µM (active),0.0417 µM (active),0.0927 µM (active),> 10 µM (inactive),0.0209 µM (active),7.82 µM (inactive),5.5 µM (inactive),> 10 µM (inactive),0.0263 µM (active),0.0314 µM (active),0.0721 µM (active),> 10 µM (inactive),0.017 µM (active),< 0.01 µM (active),0.0167 µM (active),0.0378 µM (active)
O[C@H]1[C@H](O)[C@@H](Cn2nnc(-c3ccccc3)c2-c2ccccc2)OCO[C@@H]1Cn1nnc(-c2ccccc2)c1-c1ccccc1,3.63 µM (inactive),5.92 µM (inactive),3.24 µM (inactive),7.82 µM (inactive),2.36 µM (inactive),6.47 µM (inactive),6.47 µM (inactive),3.65 µM (inactive),3.11 µM (inactive),3.16 µM (inactive),2.97 µM (inactive),2.7 µM (inactive),2.68 µM (inactive),5.9 µM (inactive),2.32 µM (inactive),5.31 µM (inactive),2.24 µM (inactive),4.01 µM (inactive),4.99 µM (inactive),4.19 µM (inactive)
NC1=NCN(C2OC(CO)C(O)C2O)C(=O)N1 (centres undefined),14.1 µM (inactive),> 88.3 µM (inactive),9.84 µM (inactive),22.5 µM (inactive),349 µM (inactive),6.85 µM (inactive),509 µM (inactive),5.74 µM (inactive),16.6 µM (inactive),24.3 µM (inactive),8.99 µM (inactive),5.21 µM (inactive),342 µM (inactive),5.57 µM (inactive),2.23 µM (inactive),9.62 µM (inactive),40.4 µM (inactive),2.28 µM (inactive),131 µM (inactive),145 µM (inactive)
Nc1nc(N)nc(-c2cnccn2)n1,> 100 µM (inactive),> 100 µM (inactive),> 100 µM (inactive),> 100 µM (inactive),> 100 µM (inactive),> 100 µM (inactive),> 100 µM (inactive),> 100 µM (inactive),> 100 µM (inactive),> 100 µM (inactive),> 100 µM (inactive),> 100 µM (inactive),> 100 µM (inactive),> 100 µM (inactive),> 100 µM (inactive),> 100 µM (inactive),> 100 µM (inactive),> 100 µM (inactive),> 100 µM (inactive),> 100 µM (inactive)
C[N+]1(CCC(=O)c2ccccc2)CCC2CCC(C2)C1 (centres undefined),> 100 µM (inactive),> 100 µM (inactive),> 100 µM (inactive),> 100 µM (inactive),> 100 µM (inactive),> 100 µM (inactive),> 100 µM (inactive),> 100 µM (inactive),> 100 µM (inactive),> 100 µM (inactive),> 100 µM (inactive),> 100 µM (inactive),> 100 µM (inactive),> 100 µM (inactive),> 100 µM (inactive),> 100 µM (inactive),> 100 µM (inactive),> 100 µM (inactive),> 100 µM (inactive),> 100 µM (inactive)
COC(=O)c1ccccc1C1CN=NC12Cc1cc(C)c(C)cc1C2=O (centres undefined),29.7 µM (inactive),29.1 µM (inactive),24.4 µM (inactive),29.9 µM (inactive),48.9 µM (inactive),25.8 µM (inactive),42.1 µM (inactive),55.2 µM (inactive),33.4 µM (inactive),84.3 µM (inactive),66.2 µM (inactive),34.3 µM (inactive),32.1 µM (inactive),> 100 µM (inactive),20.4 µM (inactive),65.9 µM (inactive),55.2 µM (inactive),20 µM (inactive),49.9 µM (inactive),30.3 µM (inactive)
COc1ccccc1CCN1CCN(CCCc2ccccc2)CC1,62.7 µM (inactive),–,79.6 µM (inactive),> 100 µM (inactive),83.9 µM (inactive),70.8 µM (inactive),> 100 µM (inactive),> 100 µM (inactive),33 µM (inactive),> 100 µM (inactive),59.8 µM (inactive),89.7 µM (inactive),> 100 µM (inactive),72.9 µM (inactive),64.6 µM (inactive),> 100 µM (inactive),47.3 µM (inactive),34.5 µM (inactive),28.5 µM (inactive),46.3 µM (inactive)
CCOP(=O)(OCC)C1=C(c2ccccc2)OC(N)=C(C#N)C1c1ccc(Cl)cc1 (centres undefined),> 100 µM (inactive),> 100 µM (inactive),> 100 µM (inactive),> 100 µM (inactive),> 100 µM (inactive),> 100 µM (inactive),> 100 µM (inactive),> 100 µM (inactive),> 100 µM (inactive),66.1 µM (inactive),> 100 µM (inactive),> 100 µM (inactive),> 100 µM (inactive),> 100 µM (inactive),> 100 µM (inactive),> 100 µM (inactive),79.3 µM (inactive),> 100 µM (inactive),> 100 µM (inactive),> 100 µM (inactive)
O=C1NC(c2ccc3ccccc3c2)Nc2ccccc21 (centres undefined),21.1 µM (inactive),24.5 µM (inactive),46.1 µM (inactive),75.7 µM (inactive),–,56 µM (inactive),45.6 µM (inactive),23.6 µM (inactive),33.1 µM (inactive),20.7 µM (inactive),51.9 µM (inactive),–,27.9 µM (inactive),32.1 µM (inactive),58.7 µM (inactive),5.26 µM (inactive),51.9 µM (inactive),2.54 µM (inactive),26.3 µM (inactive),64.9 µM (inactive)
COc1ccc(C(C)NNC(=O)c2cc[n+]([BH2-]C#N)cc2)cc1OC (centres undefined),> 100 µM (inactive),> 100 µM (inactive),> 100 µM (inactive),> 100 µM (inactive),> 100 µM (inactive),> 100 µM (inactive),> 100 µM (inactive),> 100 µM (inactive),> 100 µM (inactive),> 100 µM (inactive),> 100 µM (inactive),> 100 µM (inactive),> 100 µM (inactive),> 100 µM (inactive),> 100 µM (inactive),> 100 µM (inactive),> 100 µM (inactive),> 100 µM (inactive),> 100 µM (inactive),> 100 µM (inactive)
CC[C@@]1(O)C(=O)OCc2c1cc1n(c2=O)Cc2cc3cc4c(cc3nc2-1)OCO4,–,0.00114 µM (active),0.01 µM (active),0.00148 µM (active),< 0.001 µM (active),< 0.0143 µM (active),0.0881 µM (active),0.00948 µM (active),0.00167 µM (active),< 0.001 µM (active),0.00221 µM (active),< 0.001 µM (active),0.00746 µM (active),0.00168 µM (active),0.00135 µM (active),0.0118 µM (active),0.0238 µM (active),0.00304 µM (active),0.0439 µM (active),0.00116 µM (active)
Nc1cc2[nH]cnc2c(=O)[nH]1 [DEZAGUANINE],51.6 µM (inactive),31.6 µM (inactive),21.9 µM (inactive),90.8 µM (inactive),14.6 µM (inactive),63.5 µM (inactive),56.2 µM (inactive),23.1 µM (inactive),16.6 µM (inactive),16 µM (inactive),41.7 µM (inactive),6.28 µM (inactive),9.29 µM (inactive),77.1 µM (inactive),10.5 µM (inactive),> 123 µM (inactive),82.8 µM (inactive),12.3 µM (inactive),21.9 µM (inactive),32.3 µM (inactive)

# — ChEMBL document CHEMBL1201862, “PubChem BioAssay data set” (2004)
